Experiment: recombinant UMI read abundance after kanamycin selection (control-corrected) (log10(CPM+1)); higher = more efficient recombination; extreme values may be limits of the assay; sequences stand for … in AGTGCAGAGAAAATCGGCCAGTTTTCTCTGCCTGCAGTCCGCATGCCGTGGGACCCCTTGGGTTCTAACCTGTTGCCTAGATTTATGCAGCGGACTGCCTTTCTCCCAAAGTGATAAACCGG…AGGTTGGTTTCACT; site = the 11-nt donor
Procedure, shortened: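 Sequenced counts of recombinant UMIs were turned into CPM, averaged across replicates and scaled with control-derived factors. The reported figure is log10(CPM+1). Those UMIs, each 12 nt long, tagged donor and donor-binding-loop pairs on a plasmid with a promoterless kanamycin gene, screened as a pool in Escherichia coli with IPTG (0.07 mM) plus kanamycin or without selection.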
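Also: IS621 bridge recombinase in Escherichia coli cells against a fixed T5 target plasmid.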

Sequence | recombinant UMI read abundance (log10)
CTCGTTACATGGACCGGTTTTCCCGGTAATCCGTATTTGTG (site CTCGTTACTCA) | 0.783
CTCTACACATGGACCGGTTTTCCCGGTAATCCGTATTTGCG (site CTCTACACTAG) | 0.613
CTCTACACATGGACCGGTTTTCCCGGTAATCCGTATTTGCG (site CTCTACACTCG) | 1.73
CTCTACACATGGACCGGTTTTCCCGGTAATCCGTATTTGCG (site CTCTACACTGG) | 0.00583
CTCTACACATGGACCGGTTTTCCCGGTAATCCGTATTTGCG (site CTCTACACTTG) | 0.829
CTCTACGCATGGACCGGTTTTCCCGGTAATCCGTATTTGCT (site CTCTACACTAG) | 0.475
CTCTACGCATGGACCGGTTTTCCCGGTAATCCGTATTTGCT (site CTCTACCCTAG) | 0
CTCTACGCATGGACCGGTTTTCCCGGTAATCCGTATTTGCT (site CTCTACGCTAG) | 0.572
CTCTACGCATGGACCGGTTTTCCCGGTAATCCGTATTTGCT (site CTCTACTCTAG) | 2.89
CTCTCCTCATGGACCGGTTTTCCCGGTAATCCGTATTTGCC (site CACTCCTCTGG) | 2.68
CTCTCCTCATGGACCGGTTTTCCCGGTAATCCGTATTTGCC (site CCCTCCTCTGG) | 2.6
CTCTCCTCATGGACCGGTTTTCCCGGTAATCCGTATTTGCC (site CGCTCCTCTGG) | 2.57
CTCTCCTCATGGACCGGTTTTCCCGGTAATCCGTATTTGCC (site CTCTCCTCTGG) | 2.63
CTCTGGACATGGACCGGTTTTCCCGGTAATCCGTATTTGGA (site TGAGTCTCTCA) | 0
CTCTTGGCATGGACCGGTTTTCCCGGTAATCCGTATTTGGA (site CACTTGGCTTC) | 0.273
CTCTTGGCATGGACCGGTTTTCCCGGTAATCCGTATTTGGA (site CCCTTGGCTTC) | 0.169
CTCTTGGCATGGACCGGTTTTCCCGGTAATCCGTATTTGGA (site CGCTTGGCTTC) | 0.00297
CTCTTGGCATGGACCGGTTTTCCCGGTAATCCGTATTTGGA (site CTCTTGGCTTC) | 0.529
CTGAATCCATGGACCGGTTTTCCCGGTAATCCGTATTTGTG (site CGGAATCCTAA) | 0.00601
CTGAATCCATGGACCGGTTTTCCCGGTAATCCGTATTTGTG (site CTGAATCCTCA) | 0.684
CTGACCTCATGGACCGGTTTTCCCGGTAATCCGTATTTGTA (site CTGACCTCTTA) | 2.34
CTGAGATCATGGACCGGTTTTCCCGGTAATCCGTATTTGTA (site CTGAGATCTTA) | 2.8
CTGAGGCCATGGACCGGTTTTCCCGGTAATCCGTATTTGGT (site CTGAGGCCTAC) | 0
CTGATACCATGGACCGGTTTTCCCGGTAATCCGTATTTGCT (site CTGATACCTAG) | 0.00587
CTGATACCATGGACCGGTTTTCCCGGTAATCCGTATTTGCT (site CTGCTACCTAG) | 0
CTGATACCATGGACCGGTTTTCCCGGTAATCCGTATTTGCT (site CTGGTACCTAG) | 0
CTGATACCATGGACCGGTTTTCCCGGTAATCCGTATTTGCT (site CTGTTACCTAG) | 0
CTGCACACATGGACCGGTTTTCCCGGTAATCCGTATTTGAT (site CTGCACACTAT) | 2.25
CTGCCACCATGGACCGGTTTTCCCGGTAATCCGTATTTGCT (site CTGCAACCTAG) | 0

Source: the supplement of paper PMC11208160
